Test results reported in US10450570B2, “Compositions and methods for controlling vasculature” (YALE UNIVERSITY, priority 2016, dated 2019).

Tests used:
HDLECs [1] = assay: Glycolytic flux measurement (5-3H-glucose); assay type: cell-based, human
Experimental: (§1) Glycolysis was measured as previously described. Briefly, subconfluent HDLECs cultured in 12-well plates were incubated with 1 ml/well EBM2 medium (containing appropriate amount of serum and supplement) with 80 μCi/mmol 5-^3H-glucose (Perkin Elmer) for 2-3 hr. Then 0.8 ml/well medium was transferred into glass vials with hanging wells and filter papers soaked with H2O. After incubation in a cell culture incubator for at least 2 days to reach saturation, filter papers were taken out and the amount of evaporated ^3H2O was measured in a scintillation counter. Glucose oxidation, glutamine oxidation and fatty acid oxidation were measured essentially as reported. For measurement of glucose uptake, HDLECs were incubated with 2-[1-^14C]-deoxy-D-glucose (2.5 μCi/ml, Perkin Elmer) for 10 min. before PBS washing (at least 3 times to get rid of all radioactive medium) and then lysis with 500 μL 0.1 N NaOH. 400 μl NaOH cell lysate for each sample was transferred to scintillation vials containing scintillation liquid and measured.

orthotopic Panc02 tumors = assay: Murine orthotopic pancreatic tumor model, peritumoral lymphatics (LYVE1); assay type: in vivo, mouse; settings: oral, 30 mg/kg/day, compared to vehicle controls
Experimental: The murine pancreatic tumor cell line Panc02 was obtained from Prof. Wiedenmann (Charité University Hospital, Berlin). 1×10^6 tumor cells were injected subcapsularly in the head region of the pancreas of anaesthetized female C57Bl/6 mice (7-9 weeks old, Charles River, France) using a 30-gauge needle. At day 3 after tumor inoculation, tumor-bearing mice were treated daily with SSR (30 mg/kg/day) or vehicle (0.6% methylcellulose) via oral gavage. At day 9, primary tumors were removed, weighted, and tumor volumes (V) were calculated using the formula V=0.52×(a^2×b), where a represents the smallest tumour diameter and b represents the largest tumour diameter. The incidence of tumor invasion into adjacent organs, hemorrhagic ascites, and regional celiac and mesenteric lymph node metastases were recorded, and confirmed by immunohistochemistry on paraffin sections. Paraffin-embedded […] sections were prepared and used for immunohistochemistry using the following antibodies: anti-LYVE1 (Upstate-Cell Signaling Solutions, Bio-connect, Huissen, The Netherlands) and anti-VEGFR3 (eBiosciences). The lymph vessel area in the peritumoral area was analysed using the KS300 software (Zeiss).

zebrafish = assay: Lymphatic development in zebrafish embryos; assay type: in vivo; settings: 0.25 μM, 53 hpf Tg (fli1a:EGFP) embryos, vs DMSO
Myc expression in HDLECs = assay: Western blot of Myc expression in HDLECs; assay type: cell-based, human
Experimental: (§2) Human dermal lymphatic endothelial cells (HDLECs, HMVEC-dLyNeo-Der Lym Endo EGM-2MV) and Pooled human umbilical vein endothelial cells (HUVECs) were purchased from Lonza and cultured in EBM2 basal medium with EGM-2 MV BulletKit. Both cell types were tested negative for mycoplasma in Lonza. Culture medium was changed every the other day. Tissue culture plates were coated with 0.1% gelatin (Sigma) for 30 min at 37° C. and washed with Dulbecco's Phosphate-Buffered Saline (Life Technologies) before cell plating. For siRNA-mediated gene knockdown, FGFR1 siRNA (ON-TARGETplus human FGFR1 siRNA, Dharmacon; Hs_FGFR1_6, Qiagen), FGFR3 siRNA (Hs_FGFR3_6, Qiagen), HK2 siRNA (s6562 human HK2 siRNA, Life Technologies), c-Myc siRNA (ON-TARGETplus human Myc siRNA, Dharmacon), AllStar negative control siRNA (Qiagen), and ON-TARGETplus Non-targeting pool (Dharmacon) were transfected by lipofectamine RNAimax reagent (Life Technologies). Human FGF2 was provided by Kaken Pharmaceutical Co, Ltd (Japan) and ordered from Peprotech. Human VEGFC, VEGFD, IGF1, IGF2 and PDGFBB were purchased from Peprotech. To assay the effect of FGFR1 knockdown on glycolytic enzyme expression, HDLECs, transfected with control or FGFR1 siRNA 3 days in advance, were replated and collected for protein analysis 24 hr later when the cell confluency reached ˜80%. […] ImageJ was used for densitometry quantification of western blot bands.

HUVECs = assay: Glycolytic flux measurement in HUVECs; assay type: cell-based, human
[2] = system: HK2 and other glycolytic enzymes in HDLECs; assay: Western blot of glycolytic enzyme expression in HDLECs; assay type: cell-based, human; settings: protein
Experimental: as §2

[3] = system: Myc binding to the HK2 E-boxes in HDLECs; assay: ChIP-qPCR of Myc binding to the HK2 gene; assay type: cell-based, human
Experimental: ChIP assays were performed using SimpleChIP® Plus Enzymatic Chromatin IP Kit (Cell Signaling) according to manufacturer's protocol with some minor modifications. Basically cells cultured on 20-cm dishes were fixed for 10 min by adding 37% formaldehyde solution to the culture medium to a final concentration of 1%. Fixation was quenched with glycine for 5 min at room temperature. Cells were washed twice with ice-cold PBS, scraped into 2 ml PBS, and centrifuged at 5,000 rpm for 10 min. The cell pellets from two 20-cm dishes were combined and lysed in 1 ml lysis buffer. The lysate was then centrifuged at 5,000 rpm for 5 min at 4° C. and the pellet was resuspended in 100 μl nuclease digestion buffer. The DNA was digested with 0.5 μl of Micrococcal Nuclease for 20 min at 37° C. to a length of approximately 150-900 bp (checked by agarose gel electrophoresis). Lysates were centrifuged and the pellet was resuspended in 500 μl ChIP buffer and sonicated for 3×30 s at power level 2 and 40% constancy. […] The amount of precipitated DNA from each sample was quantified by qPCR using primers flanking the Myc binding element in the HK2 gene. The reading was normalized to that of DNA purified from the previously saved cross-linked chromatin (2% input). The reading by DNA from IP using Myc antibody against that from IgG IP indicated the antibody efficiency for ChIP assay. […]

Myc expression in HUVECs = assay: Western blot of Myc expression in HUVECs; assay type: cell-based, human
Experimental: as §2

HDLECs [4] = assay: Glucose uptake measurement (2-[1-14C]-deoxy-D-glucose); assay type: cell-based, human
Experimental: as §1

[5] = system: HK2 and other glycolytic enzymes in HUVECs; assay: Western blot of glycolytic enzyme expression in HUVECs; assay type: cell-based, human
Experimental: as §2

HDLECs [6] = assay: Mass spectrometry of glycolytic metabolites and ATP; assay type: cell-based, human
Experimental: HDLECs were quenched by a rapid wash with ice-cold PBS and then collected in 150 μl of an ice-cold solution containing 20% methanol, 0.1% formic acid, 1 mM phenylalanine, 3 mM NaF and 100 μM EDTA. ^2H4-Taurine (10 μM, CDN Isotopes) was used as a loading control. All the samples were lyophilized and resuspended in 50 μL of water prior the LC-MS/MS analysis. Samples were injected onto a Cogent Diamond Hydride™ column (2.2 μm particle size, 2.1 mm×10 cm) at a flow rate of 0.5 mL/min. Glycolytic intermediates were eluted isocratically with a 95% aqueous/5% organic solvent mixture. The aqueous solution contained 15 mM ammonium formate. The organic solution contained 60% acetonitrile, 35% isopropyl alcohol and 15 mM ammonium formate. Samples were ionized by electrospray into an ABSCIEX 5500 QTRAP equipped with a SelexION for differential mobility separation (DMS) and acquired using multiple reaction monitoring (MRM) in negative mode, as described previously. DMS-based separation of fructose-6-phosphate from glucose-6-phosphate, as well as the separation of ATP, ADP and AMP nucleotides, was achieved using no modifier. Isopropyl alcohol was used as modifier for the DMS-based separation of the remaining glycolytic intermediates. […]

mouse cornea = assay: Corneal lymphangiogenesis model; assay type: in vivo; settings: FGF2-containing pellets implanted, 1 week
Experimental: Slow-releasing pellets containing FGF2 were made as previously described (Tang, Z. et al. JoVE, (2011)). Surgery to implant the pellets into the mouse cornea was performed as reported (Cao, R. et al. Nature protocols 6, 817-826, (2011)). Adult Prox1-CreER^T2(KI); HK2^flox/flox and control mice were i.p. injected with tamoxifen (150 μg/g body weight) every the other day (seven injections total) before the cornea surgery. 1 week after the pellet implantation, eyeballs were harvested for cornea dissection and immunostaining with LYVE1 (Angiobio, #11-034) and PECAM1 (BD Pharmigen, #553370) antibodies and then used for imaging (spinning disk confocal microscopy) and quantification analysis (ImageJ).

HDLECs [7] = assay: Three-dimensional bead sprouting assay; assay type: cell-based, human; settings: control siRNA HDLEC-coated beads
Experimental: HDLECs were trypsinized and mixed with collagen-coated Cytodex® microcarrier beads (Sigma) in a ratio of 2500 beads to 1×10^6 cells in warm EGM-2 medium in a 15 ml falcon tube. The mixture was incubated at 37° C. for 4 hr., with shaking every 20 min. to ensure even coating of the beads. After 4 hr., the coated beads were transferred to a 6-well plate in 2 ml of EGM-2 medium per well and incubated at 37° C. overnight. The next day, coated beads were embedded into a fibrinogen gel. For each well of a 24-well plate, 300 μl of 3 mg/mL fibrinogen in PBS was used, along with 100 μg/ml of aprotinin (Sigma) and 1.5 unit/ml of thrombin (Sigma). Approximately 250 coated beads were embedded in each well. The plate was then incubated at 37° C. for one hr. to generate a clot. After the gel solidified, human lung fibroblasts in EGM-2 medium were seeded on top at a concentration of 20,000 cells/well. The medium was changed every other day (full EGM-2 medium with 200 ng/mL of FGF2), and the plates were imaged on day 6 using a spinning disk confocal microscope (Perkin Elmer). ImageJ was used to measure the sprout length for the data analysis.

Compound: IGF1: insulin-like growth factor 1, purchased from Peprotech
- glycolytic flux (HDLECs [1]): no effect

Compound: COc1c(C)c(C(=O)c2ccc(N)c(C(=O)[O-])c2)n2ccccc12.[Na+] [SSR128129E]
- lymphatic vasculature in the peri-tumoral area (LYVE1) (orthotopic Panc02 tumors): significant reduction of the lymphatic vasculature in the peri-tumoral area

Compound: IGF2: insulin-like growth factor 2, purchased from Peprotech
- glycolytic flux (HDLECs [1]): reduced flux

Compound: Cc1c[nH]c(/C=C2\C(=O)Nc3ccccc32)c1CCC(=O)O [SU5402]
- lymphatic development in zebrafish (parachordal line length) (zebrafish): impairs lymphatic development in zebrafish

Compound: FGF2: Human FGF2 provided by Kaken Pharmaceutical and ordered from Peprotech
- Myc protein expression (Myc expression in HDLECs): increased Myc protein expression
- glycolysis in HUVECs (HUVECs): enhanced glycolysis
- glycolytic enzyme (HK2) expression [2]: robust increase in HK2 expression, with minimal changes of other enzymes' expression
- amount of Myc binding to the HK2 E-boxes [3]: increased by FGF2 treatment
- Myc expression in HUVECs (Myc expression in HUVECs): increased Myc expression
- glucose uptake (HDLECs [4]): significantly increased glucose uptake
- HK2 protein expression in HUVECs [5]: selectively induced HK2 expression albeit to a lesser extent than in LECs
- ATP production (HDLECs [6]): increased
- steady-state levels of glycolytic metabolites and lactate (HDLECs [6]): all increased by FGF2 stimulation
- glycolytic flux (HDLECs [1]): doubled
- lymphangiogenesis in the mouse cornea (mouse cornea): induced robust stimulation of lymphangiogenesis
- sprouting response (HDLECs [7]): induced a strong sprouting response
